One assay deals with Bcl-2 protein (histag-Bcl-2, UniProtKB P10415) (Homo sapiens (Human), UniProt P10415). The assay can be described thus: Inhibition of Bcl-2 by the fluorescence polarisation technique. The format is binding. The note with it: incubation for 2 hours, read-out: IC50 (nM) Bcl-2 FP. Summed up: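 In pH 7.4 buffer (Hepes 10 mM, NaCl 150 mM, Tween20 0.05%), test compounds at increasing concentrations competed with a fluorescein peptide (1.00×10^−8 M final) for histag-Bcl-2 (2.50×10^−8 M final). Readout was fluorescence polarisation after a 2 h incubation.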
Chain of Bcl-2 protein (P10415 whole entry): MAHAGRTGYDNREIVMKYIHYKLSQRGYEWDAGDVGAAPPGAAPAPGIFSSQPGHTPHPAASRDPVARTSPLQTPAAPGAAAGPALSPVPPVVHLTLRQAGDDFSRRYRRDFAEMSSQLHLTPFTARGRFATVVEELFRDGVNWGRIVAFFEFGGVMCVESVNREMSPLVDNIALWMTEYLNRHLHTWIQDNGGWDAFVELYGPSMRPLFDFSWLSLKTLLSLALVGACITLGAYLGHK
For orientation: In fluorescence polarisation assays a small probe gives low polarisation when free and higher when bound to something large.

Assay [1] relates to RS4;11 leukaemia tumour line. Kind of assay: In vitro cytotoxicity (Microculture Tetrazolium Assay). The format is cell-based. Conditions: Homo sapiens, RS4-11, 48 h, RS4;11 cells, exposed for 48 hours, cell viability; read-out: IC50 (nM) MTT RS4;11. The protocol:
The cytotoxicity studies were carried out on the RS4;11 leukaemia tumour line.
The cells are distributed onto microplates and exposed to the test compounds for 48 hours.
The cell viability is then quantified by a colorimetric assay, the Microculture Tetrazolium Assay (Cancer Res., 1987, 47, 939-942).

Counter-ions that a name gives are not always drawn.

Broadly, the IC50 is the midpoint of a concentration-inhibition curve.

As for `COc1ccc(N(C(=O)c2cc(-c3cc(F)ccc3C(=O)N3Cc4ccccc4C[C@H]3CN3CCOCC3)n(C)c2C)c2ccc(O)cc2)cc1C#N` [Example 427, N-(3-Cyano-4-methoxyphenyl)-5-(5-fluoro-2-{[(3S)-3-(morpholin-4-ylmethyl)-3,4-dihydroisoquinolin-2(1H)-yl]carbonyl}phenyl)-N-(4-hydroxyphenyl)-1,2-dimethyl-1H-pyrrole-3-carboxamide hydrochloride], the concentration for half-maximal inhibition (IC50) amounted to 2.2 nM at Bcl-2 protein and 23.3 nM in assay [1].

For `Cc1c(N(C(=O)c2cc(-c3ccc(F)cc3C(=O)N3Cc4ccccc4C[C@H]3CN3CCOCC3)n(C)c2C)c2ccc(O)cc2)cc(C#N)n1C` [Example 428, N-(5-Cyano-1,2-dimethyl-1H-pyrrol-3-yl)-5-(4-fluoro-2-{[(3S)-3-(morpholin-4-ylmethyl)-3,4-dihydroisoquinolin-2(1H)-yl]carbonyl}phenyl)-N-(4-hydroxyphenyl)-1,2-dimethyl-1H-pyrrole-3-carboxamide hydrochloride], the IC50 at Bcl-2 protein was 3.5 nM; in assay [1], 59.2 nM.

On to `COc1cc(-c2cc(C(=O)N(c3ccc(O)cc3)c3cc(C#N)n(C)c3C)c(C)n2C)c(C(=O)N2Cc3ccccc3C[C@H]2CN2CCOCC2)cc1F` [Example 429, N-(5-Cyano-1,2-dimethyl-1H-pyrrol-3-yl)-5-(4-fluoro-5-methoxy-2-{[(3S)-3-(morpholin-4-ylmethyl)-3,4-dihydroisoquinolin-2(1H)-yl]carbonyl}phenyl)-N-(4-hydroxyphenyl)-1,2-dimethyl-1H-pyrrole-3-carboxamide hydrochloride], for which the IC50 at Bcl-2 protein turned out to be 3.1 nM; in assay [1] it was 109 nM.

As for `Cc1c(C(=O)N(c2ccc(O)cc2)c2cnc3c(ccn3C)c2)cc(-c2cc(Cl)ccc2C(=O)N2Cc3ccccc3CC2C(F)(F)F)n1C` (stereo not shown) [Example 430, 5-(5-Chloro-2-{[3-(trifluoromethyl)-3,4-dihydroisoquinolin-2(1H)-yl]-carbonyl}phenyl)-N-(4-hydroxyphenyl)-1,2-dimethyl-N-(1-methyl-1H-pyrrolo[2,3-b]-pyridin-5-yl)-1H-pyrrole-3-carboxamide], the half-inhibitory concentration (IC50) at Bcl-2 protein worked out at 19.9 nM; in assay [1], 328 nM.

Consider `Cc1nn(C)cc1N(C(=O)c1cc(-c2cc(Cl)ccc2C(=O)N2Cc3ccccc3C[C@H]2CN2CCOCC2)n(C)c1C)c1ccc(O)cc1` [Example 431, 5-(5-Chloro-2-{[(3S)-3-(morpholin-4-ylmethyl)-3,4-dihydroisoquinolin-2(1H)-yl]carbonyl}phenyl)-N-(1,3-dimethyl-1H-pyrazol-4-yl)-N-(4-hydroxyphenyl)-1,2-dimethyl-1H-pyrrole-3-carboxamide hydrochloride], for which the figures for the IC50 (on Bcl-2 protein; in assay [1]) were 3 nM and 89 nM, respectively.

In the case of `Cc1c(N(C(=O)c2cc(-c3cc(Cl)ccc3C(=O)N3Cc4ccccc4C[C@H]3CN3CCOCC3)n(C)c2C)c2ccc(O)cc2)cnn1C` [Example 432, 5-(5-Chloro-2-{[(3S)-3-(morpholin-4-ylmethyl)-3,4-dihydroisoquinolin-2(1H)-yl]carbonyl}phenyl)-N-(1,5-dimethyl-1H-pyrazol-4-yl)-N-(4-hydroxyphenyl)-1,2-dimethyl-1H-pyrrole-3-carboxamide hydrochloride], the results for the IC50 (at Bcl-2 protein; in assay [1]) were 3.4 nM and 76.6 nM, respectively.

Consider `Cc1c(C(=O)N(c2ccc(O)cc2)c2cc(C#N)n(C)c2)cc(-c2ccccc2C(=O)N2Cc3ccccc3C[C@H]2CN2CCOCC2)n1C` [Example 433, N-(5-Cyano-1-methyl-1H-pyrrol-3-yl)-N-(4-hydroxyphenyl)-1,2-dimethyl-5-(2-{[(3S)-3-(morpholin-4-ylmethyl)-3,4-dihydroisoquinolin-2(1H)-yl]carbonyl}phenyl)-1H-pyrrole-3-carboxamide hydrochloride], for which the values for the concentration for half-maximal inhibition (IC50) (on Bcl-2 protein; in assay [1]) were 2.6 nM and 48.2 nM, respectively.

Consider `Cc1c(C(=O)N(c2ccc(O)cc2)c2cnc3c(c2)CCN3C)cc(-c2cc(F)ccc2C(=O)N2Cc3ccccc3C[C@H]2CN2CCOCC2)n1C` [Example 434, 5-(5-Fluoro-2-{[(3S)-3-(morpholin-4-ylmethyl)-3,4-dihydroisoquinolin-2(1H)-yl]carbonyl}phenyl)-N-(4-hydroxyphenyl)-1,2-dimethyl-N-(1-methyl-2,3-dihydro-1H-pyrrolo[2,3-b]pyridin-5-yl)-1H-pyrrole-3-carboxamide hydrochloride], for which the values for the IC50 (on Bcl-2 protein; in assay [1]) were 3.5 nM and 45.7 nM, respectively.

In the case of `COc1cc(C(=O)N2Cc3ccccc3C[C@H]2CN2CCOCC2)c(-c2cc(C(=O)N(c3ccc(O)cc3)c3cc(C#N)ccn3)c(C)n2C)cc1F` [Example 435, N-(4-Cyanopyridin-2-yl)-5-(5-fluoro-4-methoxy-2-{[(3S)-3-(morpholin-4-ylmethyl)-3,4-dihydroisoquinolin-2(1H)-yl]carbonyl}phenyl)-N-(4-hydroxyphenyl)-1,2-dimethyl-1H-pyrrole-3-carboxamide hydrochloride], the IC50 on Bcl-2 protein was 14.9 nM; in assay [1] it was 441 nM.

As for `Cc1c(C(=O)N(c2ccc(O)cc2)c2ccc(C#N)s2)cc(-c2cc(Cl)ccc2C(=O)N2Cc3ccccc3C[C@H]2CN2CCOCC2)n1C` [Example 436, 5-(5-Chloro-2-{[(3S)-3-(morpholin-4-ylmethyl)-3,4-dihydroisoquinolin-2(1H)-yl]carbonyl}phenyl)-N-(5-cyanothiophen-2-yl)-N-(4-hydroxyphenyl)-1,2-dimethyl-1H-pyrrole-3-carboxamide hydrochloride], the half-inhibitory concentration (IC50) at Bcl-2 protein came out at 49.1 nM; in assay [1] it was 338 nM.

On to `Cc1c(C(=O)N(c2ccc(O)cc2)c2ccc(F)c(C#N)c2)cc(-c2cc(F)ccc2C(=O)N2Cc3ccccc3C[C@H]2CN2CCOCC2)n1C` [Example 437, N-(3-Cyano-4-fluorophenyl)-5-(5-fluoro-2-{[(3S)-3-(morpholin-4-ylmethyl)-3,4-dihydroisoquinolin-2(1H)-yl]carbonyl}phenyl)-N-(4-hydroxyphenyl)-1,2-dimethyl-1H-pyrrole-3-carboxamide hydrochloride], for which the IC50 came to 4.4 nM at Bcl-2 protein and 70.5 nM in assay [1].

For the molecule `Cc1c(C(=O)N(c2ccc(O)cc2)c2cnccn2)cc(-c2cc(Cl)ccc2C(=O)N2Cc3ccccc3C[C@H]2CN2CCOCC2)n1C` [Example 438, 5-(5-Chloro-2-{[(3S)-3-(morpholin-4-ylmethyl)-3,4-dihydroisoquinolin-2(1H)-yl]carbonyl}phenyl)-N-(4-hydroxyphenyl)-1,2-dimethyl-N-(pyrazin-2-yl)-1H-pyrrole-3-carboxamide hydrochloride], the IC50 is 11.3 nM on Bcl-2 protein and 379 nM in assay [1].

Take `COc1ncc(N(C(=O)c2cc(-c3cc(F)c(OC)cc3C(=O)N3Cc4ccccc4C[C@H]3CN3CCOCC3)n(C)c2C)c2ccc(O)cc2)cn1` [Example 439, 5-(5-Fluoro-4-methoxy-2-{[(3S)-3-(morpholin-4-ylmethyl)-3,4-dihydroisoquinolin-2(1H)-yl]carbonyl}phenyl)-N-(4-hydroxyphenyl)-N-(2-methoxypyrimidin-5-yl)-1,2-dimethyl-1H-pyrrole-3-carboxamide hydrochloride]: the IC50 on Bcl-2 protein came out at 6.1 nM; in assay [1], 329 nM.

As for `COc1cc(C(=O)N2Cc3ccccc3C[C@H]2CN2CCOCC2)c(-c2cc(C(=O)N(c3ccc(O)cc3)c3cc(C#N)n(C)c3C)c(C)n2C)cc1F` [Example 440, N-(5-Cyano-1,2-dimethyl-1H-pyrrol-3-yl)-5-(5-fluoro-4-methoxy-2-{[(3S)-3-(morpholin-4-ylmethyl)-3,4-dihydroisoquinolin-2(1H)-yl]carbonyl}phenyl)-N-(4-hydroxyphenyl)-1,2-dimethyl-1H-pyrrole-3-carboxamide hydrochloride], the figures for the IC50 (at Bcl-2 protein; in assay [1]) were 2.6 nM and 13.6 nM, respectively.

For `Cc1c(N(C(=O)c2cc(-c3cc(Cl)ccc3C(=O)N3Cc4ccccc4C[C@H]3CN3CCOCC3)n(C)c2C)c2ccccc2)cc(C#N)n1C` [Example 441, 5-(5-Chloro-2-{[(3S)-3-(morpholin-4-ylmethyl)-3,4-dihydroisoquinolin-2(1H)-yl]carbonyl}phenyl)-N-(5-cyano-1,2-dimethyl-1H-pyrrol-3-yl)-1,2-dimethyl-N-phenyl-1H-pyrrole-3-carboxamide hydrochloride], the figures for the IC50 (on Bcl-2 protein; in assay [1]) were 3.5 nM and 132 nM, respectively.

With `Cc1c(C(=O)N(c2ccc(O)cc2)c2csc(C#N)c2)cc(-c2cc(Cl)ccc2C(=O)N2Cc3ccccc3C[C@H]2CN2CCOCC2)n1C` [Example 442, 5-(5-Chloro-2-{[(3S)-3-(morpholin-4-ylmethyl)-3,4-dihydroisoquinolin-2(1H)-yl]carbonyl}phenyl)-N-(5-cyanothiophen-3-yl)-N-(4-hydroxyphenyl)-1,2-dimethyl-1H-pyrrole-3-carboxamide hydrochloride], the IC50 on Bcl-2 protein was 3 nM; in assay [1] it was 42.8 nM.

Consider `COc1cnc(N(C(=O)c2cc(-c3cc(Cl)ccc3C(=O)N3Cc4ccccc4C[C@H]3CN3CCOCC3)n(C)c2C)c2ccc(O)cc2)cn1` [Example 444, 5-(5-Chloro-2-{[(3S)-3-(morpholin-4-ylmethyl)-3,4-dihydroisoquinolin-2(1H)-yl]carbonyl}phenyl)-N-(4-hydroxyphenyl)-N-(5-methoxypyrazin-2-yl)-1,2-dimethyl-1H-pyrrole-3-carboxamide hydrochloride], for which the 50% inhibitory concentration (IC50) on Bcl-2 protein stood at 5.5 nM; in assay [1], 181 nM.

Source of the values: US9108983B2, “Pyrrole compounds, a process for their preparation and pharmaceutical compositions containing them” (LES LABORATOIRES SERVIER, priority 2013, dated 2015).
